The values that follow come from patent US20260028365A1 (BIOGEN MA INC., priority 2022, published 2026).

The target in test [1] is JH2 domain of human Tyk2 (Homo sapiens (Human), UniProt P29597). As to the kind of experiment: JH2 Biochemical Assay (TR-FRET probe displacement). The test is classed as binding.
For test [2], the target named is JAK1 (Homo sapiens (Human), UniProt P23458). Briefly: pSTAT3 Cell Assay (MSD, TF1 cells). The test is classed as cell-based. To be noted: MSD. The method in brief:
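Serum-starved TF1 cells with endogenous JAK1/STAT3 were pretreated 1 h with compound in a 10-point four-fold dilution series from 10 μM, then stimulated with 30 ng/mL IL-6 for 15 min. pSTAT3 in lysates was quantified by MSD immunoassay, and IC50 came from 4-parameter logistic fits.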

Test [3] has as its target Tyk2 (Homo sapiens (Human), UniProt P29597). Briefly: pSTAT4 Cell Assay (MSD, NK92 cells). The test is classed as cell-based. To be noted: MSD.
For test [4], the target named is JAK2 (Homo sapiens (Human), UniProt O60674). Briefly: pSTAT5 Cell Assay (MSD, TF1 cells). To be noted: MSD. The test is classed as cell-based. The method in brief:
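Serum-starved TF1 cells were pretreated with compound for 1 h (10-point four-fold series from 10 μM), then stimulated with 30 ng/mL IL-3 for 15 min. pSTAT5 in lysates was measured by MSD immunoassay. IC50 came from a 4-parameter logistic fit.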

The mark [5] stands for this setting: TR-FRET probe displacement, JH2 domain of human Tyk2.
The mark [6] stands for this setting: JH2 domain of human Tyk2, TR-FRET probe displacement.

Sequence of Tyk2 (P29597 whole entry): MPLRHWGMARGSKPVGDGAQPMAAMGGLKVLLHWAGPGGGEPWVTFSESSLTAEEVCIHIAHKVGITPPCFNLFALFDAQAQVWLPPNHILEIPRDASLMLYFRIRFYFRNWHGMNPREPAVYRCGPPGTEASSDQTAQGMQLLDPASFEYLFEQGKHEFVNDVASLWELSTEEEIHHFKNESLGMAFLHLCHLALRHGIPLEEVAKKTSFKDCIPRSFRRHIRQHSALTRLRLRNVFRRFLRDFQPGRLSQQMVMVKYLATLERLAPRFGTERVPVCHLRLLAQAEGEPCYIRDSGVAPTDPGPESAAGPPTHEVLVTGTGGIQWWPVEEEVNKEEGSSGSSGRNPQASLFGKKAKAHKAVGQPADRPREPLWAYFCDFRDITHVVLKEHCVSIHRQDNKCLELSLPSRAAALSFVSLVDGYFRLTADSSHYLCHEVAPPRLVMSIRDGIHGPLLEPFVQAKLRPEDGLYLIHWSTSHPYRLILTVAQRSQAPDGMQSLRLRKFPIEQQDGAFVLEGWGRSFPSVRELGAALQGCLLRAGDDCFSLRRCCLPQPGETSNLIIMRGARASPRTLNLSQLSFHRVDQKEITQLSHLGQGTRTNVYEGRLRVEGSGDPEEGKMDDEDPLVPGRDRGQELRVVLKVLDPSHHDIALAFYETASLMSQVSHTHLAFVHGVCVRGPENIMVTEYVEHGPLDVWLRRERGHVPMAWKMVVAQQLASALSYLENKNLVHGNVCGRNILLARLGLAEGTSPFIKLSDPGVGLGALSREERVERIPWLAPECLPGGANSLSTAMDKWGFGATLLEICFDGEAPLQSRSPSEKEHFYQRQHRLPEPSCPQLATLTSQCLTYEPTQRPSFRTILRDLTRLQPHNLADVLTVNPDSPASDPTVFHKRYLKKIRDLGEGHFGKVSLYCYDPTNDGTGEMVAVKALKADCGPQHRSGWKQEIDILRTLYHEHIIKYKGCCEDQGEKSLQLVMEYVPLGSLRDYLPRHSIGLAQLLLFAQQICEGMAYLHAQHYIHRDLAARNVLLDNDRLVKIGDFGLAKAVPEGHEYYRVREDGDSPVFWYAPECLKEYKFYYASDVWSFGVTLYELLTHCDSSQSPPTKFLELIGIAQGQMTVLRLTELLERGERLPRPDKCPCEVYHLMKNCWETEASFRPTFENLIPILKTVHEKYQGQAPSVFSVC
Sequence of JH2 domain of human Tyk2 (P29597 575-876): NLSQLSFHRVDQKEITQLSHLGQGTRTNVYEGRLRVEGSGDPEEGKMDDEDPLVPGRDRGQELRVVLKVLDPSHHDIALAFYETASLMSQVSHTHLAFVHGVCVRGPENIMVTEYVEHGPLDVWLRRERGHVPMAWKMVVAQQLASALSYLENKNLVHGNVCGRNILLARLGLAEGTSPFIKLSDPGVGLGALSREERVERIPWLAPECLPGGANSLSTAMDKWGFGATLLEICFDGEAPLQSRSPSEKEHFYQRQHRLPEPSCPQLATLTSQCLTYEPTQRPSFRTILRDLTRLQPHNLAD
Sequence of JAK1 (P23458 whole entry): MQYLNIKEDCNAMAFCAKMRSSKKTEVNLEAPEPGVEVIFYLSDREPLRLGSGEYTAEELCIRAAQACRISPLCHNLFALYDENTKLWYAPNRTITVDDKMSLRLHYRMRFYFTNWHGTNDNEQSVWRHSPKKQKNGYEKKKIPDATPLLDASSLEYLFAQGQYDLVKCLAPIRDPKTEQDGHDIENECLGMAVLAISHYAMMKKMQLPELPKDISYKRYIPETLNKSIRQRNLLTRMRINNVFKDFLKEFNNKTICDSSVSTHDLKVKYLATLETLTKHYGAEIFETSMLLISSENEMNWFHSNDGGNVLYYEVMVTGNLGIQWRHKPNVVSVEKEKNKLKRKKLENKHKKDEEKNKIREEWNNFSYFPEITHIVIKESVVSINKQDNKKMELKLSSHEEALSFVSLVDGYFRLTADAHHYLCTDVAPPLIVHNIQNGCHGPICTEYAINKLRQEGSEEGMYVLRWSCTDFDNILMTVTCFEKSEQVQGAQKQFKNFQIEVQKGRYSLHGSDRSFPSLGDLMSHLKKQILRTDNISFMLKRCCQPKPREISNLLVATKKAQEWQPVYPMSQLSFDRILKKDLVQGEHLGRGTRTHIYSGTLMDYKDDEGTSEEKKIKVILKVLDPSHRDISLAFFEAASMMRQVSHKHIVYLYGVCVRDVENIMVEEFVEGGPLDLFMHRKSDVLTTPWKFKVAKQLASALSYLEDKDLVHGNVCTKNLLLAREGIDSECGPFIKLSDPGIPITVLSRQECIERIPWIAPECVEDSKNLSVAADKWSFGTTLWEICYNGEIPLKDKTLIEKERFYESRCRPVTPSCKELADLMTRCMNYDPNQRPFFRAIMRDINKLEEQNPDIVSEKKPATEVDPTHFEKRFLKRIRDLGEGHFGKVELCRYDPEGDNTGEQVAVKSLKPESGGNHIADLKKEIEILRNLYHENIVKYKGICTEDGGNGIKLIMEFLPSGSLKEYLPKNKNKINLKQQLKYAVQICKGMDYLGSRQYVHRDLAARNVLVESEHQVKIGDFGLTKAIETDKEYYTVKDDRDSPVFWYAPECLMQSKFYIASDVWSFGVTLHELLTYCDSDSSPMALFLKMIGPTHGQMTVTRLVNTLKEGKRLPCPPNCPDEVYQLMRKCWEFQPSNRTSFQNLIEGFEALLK
Sequence of JAK2 (O60674 whole entry): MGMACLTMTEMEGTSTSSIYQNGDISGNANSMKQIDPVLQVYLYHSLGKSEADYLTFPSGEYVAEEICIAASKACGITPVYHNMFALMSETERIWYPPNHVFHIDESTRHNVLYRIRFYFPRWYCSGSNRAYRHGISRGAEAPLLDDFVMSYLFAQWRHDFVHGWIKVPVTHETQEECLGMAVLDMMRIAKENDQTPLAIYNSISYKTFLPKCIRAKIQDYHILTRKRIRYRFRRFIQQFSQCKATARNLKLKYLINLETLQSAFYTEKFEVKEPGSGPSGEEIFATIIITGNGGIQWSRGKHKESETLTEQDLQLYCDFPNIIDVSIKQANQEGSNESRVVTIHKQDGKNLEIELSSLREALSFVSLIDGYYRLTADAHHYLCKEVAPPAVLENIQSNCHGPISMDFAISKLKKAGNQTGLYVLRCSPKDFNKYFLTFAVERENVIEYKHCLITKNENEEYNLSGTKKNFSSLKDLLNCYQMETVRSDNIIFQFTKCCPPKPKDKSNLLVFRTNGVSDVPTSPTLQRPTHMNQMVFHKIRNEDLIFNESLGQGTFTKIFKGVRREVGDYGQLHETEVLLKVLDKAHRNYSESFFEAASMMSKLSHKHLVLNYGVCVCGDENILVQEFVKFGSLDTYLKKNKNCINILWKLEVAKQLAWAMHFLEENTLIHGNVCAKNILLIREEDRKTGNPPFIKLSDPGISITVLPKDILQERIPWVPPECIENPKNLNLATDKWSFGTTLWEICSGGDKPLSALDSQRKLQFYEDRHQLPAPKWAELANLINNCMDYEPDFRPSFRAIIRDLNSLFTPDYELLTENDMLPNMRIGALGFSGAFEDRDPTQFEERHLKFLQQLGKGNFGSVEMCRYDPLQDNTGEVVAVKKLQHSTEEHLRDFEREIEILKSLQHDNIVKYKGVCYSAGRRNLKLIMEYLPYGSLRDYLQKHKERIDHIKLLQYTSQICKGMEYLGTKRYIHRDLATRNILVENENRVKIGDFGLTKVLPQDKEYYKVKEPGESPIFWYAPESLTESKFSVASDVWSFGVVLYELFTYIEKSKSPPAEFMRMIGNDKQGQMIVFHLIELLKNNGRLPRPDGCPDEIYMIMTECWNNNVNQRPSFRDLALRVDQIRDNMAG

For `CC(=O)Nc1cc(Nc2ccnc(C(C)(F)F)n2)c(-c2ccc(C#N)cn2)cn1` [Example 146, N-(5-cyano-4′-((2-(1,1-difluoroethyl)pyrimidin-4-yl)amino)-[2,3′-bipyridin]-6′-yl)acetamide], the IC50 is not above 10 nM in test [1] (setting [5]), not below 1000 nM in test [2] (IL-6 stimulation), not above 10 nM in test [3] and not below 1000 nM in test [4] (IL-3 stimulation).

With `CC(=O)Nc1cc(Nc2cc(C)nc(C(C)(F)F)n2)c(OCC2CC2)cn1` [Example 11, N-(5-(cyclopropylmethoxy)-4-((2-(1,1-difluoroethyl)-6-methylpyrimidin-4-yl)amino)pyridin-2-yl)acetamide], the IC50 is not above 10 nM in test [1] (setting [5]), not below 1000 nM in test [2] (IL-6 stimulation), 10 to 100 nM in test [3] and not below 1000 nM in test [4] (IL-3 stimulation).

Regarding `[2H]C([2H])([2H])Oc1cnc(NC(C)=O)cc1Nc1cc(C(C)C)nc(C(C)(F)F)n1` [Example 315, N-(4-((2-(1,1-difluoroethyl)-6-isopropylpyrimidin-4-yl)amino)-5-(methoxy-d3)pyridin-2-yl)acetamide], the IC50 in test [1] (setting [5]) was not above 10 nM; in test [2] (IL-6 stimulation), not below 1000 nM; in test [3] it was 10 to 100 nM; in test [4] (IL-3 stimulation), not below 1000 nM.

With `CNC(=O)Nc1cc(Nc2cc(C)nc(C(C)(F)F)n2)c(-c2ccn(C)n2)cn1` [Example 289, 1-(4-((2-(1,1-difluoroethyl)-6-methylpyrimidin-4-yl)amino)-5-(1-methyl-1H-pyrazol-3-yl)pyridin-2-yl)-3-methylurea], the IC50 in test [1] (setting [5]) is not above 10 nM; in test [2] (IL-6 stimulation) it was not below 1000 nM; in test [3], not above 10 nM; in test [4] (IL-3 stimulation) it was not below 1000 nM.

On to `[2H]C([2H])([2H])C([2H])([2H])Oc1cnc(NC(C)=O)cc1Nc1cc(C(C)C)nc(C(C)(F)F)n1` [Example 362, N-(4-((2-(1,1-difluoroethyl)-6-isopropylpyrimidin-4-yl)amino)-5-(ethoxy-d5)pyridin-2-yl)acetamide], for which the IC50 in test [1] (setting [5]) was not above 10 nM; in test [2] (IL-6 stimulation) it was not below 1000 nM; in test [3], 10 to 100 nM; in test [4] (IL-3 stimulation), not below 1000 nM.

For the compound `CCOc1cnc(NC(C)=O)cc1Nc1cc(O[C@H]2C[C@H](OC)C2)cc(C(C)(F)F)n1` [Example 14, N-(4-((6-(1,1-difluoroethyl)-4-((1r,3r)-3-methoxycyclobutoxy)pyridin-2-yl)amino)-5-ethoxypyridin-2-yl)acetamide], the IC50 in test [1] (setting [5]) is not above 10 nM; in test [2] (IL-6 stimulation), not below 1000 nM; in test [3] it was 10 to 100 nM; in test [4] (IL-3 stimulation), not below 1000 nM.

With `CCc1cc(Nc2cc(NC(=O)OC)ncc2OCCOC)nc(C(C)(F)F)n1` [Example 87, methyl (4-((2-(1,1-difluoroethyl)-6-ethylpyrimidin-4-yl)amino)-5-(2-methoxyethoxy)pyridin-2-yl)carbamate], the IC50 is not above 10 nM in test [1] (setting [5]), not below 1000 nM in test [2] (IL-6 stimulation), not above 10 nM in test [3] and not below 1000 nM in test [4] (IL-3 stimulation).

Turning to `COCCOc1cnc(NC(C)=O)cc1Nc1cc(OC2CC2)nc(C(C)(F)F)n1` [Example 298, N-(4-((6-cyclopropoxy-2-(1,1-difluoroethyl)pyrimidin-4-yl)amino)-5-(2-methoxyethoxy)pyridin-2-yl)acetamide], the IC50 was not above 10 nM in test [1] (setting [5]), not below 1000 nM in test [2] (IL-6 stimulation), not above 10 nM in test [3] and not below 1000 nM in test [4] (IL-3 stimulation).

As for `CCOc1cnc(NC(C)=O)cc1Nc1cc(OCCOC)nc(C(C)(F)F)n1` [Example 32, N-(4-((2-(1,1-difluoroethyl)-6-(2-methoxyethoxy)pyrimidin-4-yl)amino)-5-ethoxypyridin-2-yl)acetamide], the IC50 in test [1] (setting [5]) is not above 10 nM; in test [2] (IL-6 stimulation), not below 1000 nM; in test [3], 10 to 100 nM; in test [4] (IL-3 stimulation), not below 1000 nM.

In the case of `CC(=O)Nc1cc(Nc2cc(C)nc(C(C)(F)F)n2)c(OCC[C@@H](C)F)cn1` [Example 336, (R)-N-(4-((2-(1,1-difluoroethyl)-6-methylpyrimidin-4-yl)amino)-5-(3-fluorobutoxy)pyridin-2-yl)acetamide], the IC50 in test [1] (setting [5]) was not above 10 nM; in test [2] (IL-6 stimulation), not below 1000 nM; in test [3] it was 10 to 100 nM; in test [4] (IL-3 stimulation) it was not below 1000 nM.

Take `CCOc1cnc(NC(C)=O)cc1Nc1cc(O[C@H]2C[C@H](OC)C2)nc(C(C)(F)F)n1` [Example 16, N-(4-((2-(1,1-difluoroethyl)-6-((1r,3r)-3-methoxycyclobutoxy)pyrimidin-4-yl)amino)-5-ethoxypyridin-2-yl)acetamide]: the IC50 in test [1] (setting [5]) is not above 10 nM; in test [2] (IL-6 stimulation), not below 1000 nM; in test [3] it was not above 10 nM; in test [4] (IL-3 stimulation), not below 1000 nM.

On to `COc1cnc(NC(C)=O)cc1Nc1cc(O[C@H]2C[C@H](OC)C2)nc(C(C)(F)F)n1` [Example 19, N-(4-((2-(1,1-difluoroethyl)-6-((1r,3r)-3-methoxycyclobutoxy)pyrimidin-4-yl)amino)-5-methoxypyridin-2-yl)acetamide], for which the IC50 in test [1] (setting [5]) was not above 10 nM; in test [2] (IL-6 stimulation) it was not below 1000 nM; in test [3] it was 10 to 100 nM; in test [4] (IL-3 stimulation), not below 1000 nM.

For `[2H]C([2H])(C)Oc1cnc(NC(C)=O)cc1Nc1cc(C(C)C)nc(C(C)(F)F)n1` [Example 364, N-(4-((2-(1,1-difluoroethyl)-6-isopropylpyrimidin-4-yl)amino)-5-(ethoxy-1,1-d2)pyridin-2-yl)acetamide], the IC50 in test [1] (setting [5]) is not above 10 nM; in test [2] (IL-6 stimulation), not below 1000 nM; in test [3], 10 to 100 nM; in test [4] (IL-3 stimulation) it was not below 1000 nM.

On to `CCOc1cnc(NC(C)=O)cc1Nc1cccc(C(C)(F)F)n1` [Example 1, N-(4-((6-(1,1-difluoroethyl)pyridin-2-yl)amino)-5-ethoxypyridin-2-yl)acetamide], for which the IC50 in test [1] (setting [5]) is not above 10 nM; in test [2] (IL-6 stimulation) it was not below 1000 nM; in test [3] it was not above 10 nM; in test [4] (IL-3 stimulation) it was not below 1000 nM.

Consider `[2H]C([2H])([2H])C([2H])([2H])Oc1cnc(NC(C)=O)cc1Nc1cc(C)nc(C(C)(F)F)n1` [Example 49, N-(4-((2-(1,1-difluoroethyl)-6-methylpyrimidin-4-yl)amino)-5-(ethoxy-d5)pyridin-2-yl)acetamide], for which the IC50 in test [1] (setting [5]) was not above 10 nM; in test [2] (IL-6 stimulation), not below 1000 nM; in test [3], 10 to 100 nM; in test [4] (IL-3 stimulation), not below 1000 nM.

Regarding `CC(=O)Nc1cc(Nc2ccnc(C(C)(F)F)n2)c(-c2ccc(N(C)C)cn2)cn1` [Example 276, N-(4′-((2-(1,1-difluoroethyl)pyrimidin-4-yl)amino)-5-(dimethylamino)-[2,3′-bipyridin]-6′-yl)acetamide], the IC50 in test [1] (setting [5]) is not above 10 nM; in test [2] (IL-6 stimulation) it was not below 1000 nM; in test [3], not above 10 nM; in test [4] (IL-3 stimulation) it was not below 1000 nM.

Regarding `CC(=O)Nc1cc(Nc2cc(OC3CC3)nc(C(C)(F)F)n2)c(OC[C@H]2COCCO2)cn1` (single isomer, unassigned) [Example 454, (R)-N-(5-((1,4-dioxan-2-yl)methoxy)-4-((6-cyclopropoxy-2-(1,1-difluoroethyl)pyrimidin-4-yl)amino)pyridin-2-yl)acetamide or (S)-N-(5-((1,4-dioxan-2-yl)methoxy)-4-((6-cyclopropoxy-2-(1,1-difluoroethyl)pyrimidin-4-yl)amino)pyridin-2-yl)acetamide], the IC50 in test [1] (setting [6]) was not above 10 nM; in test [2] (IL-6 stimulated), not below 1000 nM; in test [3] it was not above 10 nM; in test [4] (IL-3 stimulated), not below 1000 nM.

Turning to `CCOc1cnc(NC(C)=O)cc1Nc1cc(C)nc(C(C)(F)F)n1` [Example 10, N-(4-((2-(1,1-difluoroethyl)-6-methylpyrimidin-4-yl)amino)-5-ethoxypyridin-2-yl)acetamide], the IC50 was not above 10 nM in test [1] (setting [5]), not below 1000 nM in test [2] (IL-6 stimulation), 10 to 100 nM in test [3] and not below 1000 nM in test [4] (IL-3 stimulation).

For `COc1cc(Nc2cc(NC(C)=O)ncc2-c2ccn(C)n2)nc(C(C)(F)F)n1` [Example 50, N-(4-((2-(1,1-difluoroethyl)-6-methoxypyrimidin-4-yl)amino)-5-(1-methyl-1H-pyrazol-3-yl)pyridin-2-yl)acetamide], the IC50 in test [1] (setting [5]) is not above 10 nM; in test [2] (IL-6 stimulation), not below 1000 nM; in test [3], not above 10 nM; in test [4] (IL-3 stimulation) it was not below 1000 nM.

In the case of `[2H]C([2H])([2H])C([2H])([2H])Oc1cnc(NC(C)=O)cc1Nc1cc(CC)nc(C(C)(F)F)n1` [Example 515, N-(4-((2-(1,1-difluoroethyl)-6-ethylpyrimidin-4-yl)amino)-5-(ethoxy-d5)pyridin-2-yl)acetamide], the IC50 was not above 10 nM in test [1] (setting [6]), not below 1000 nM in test [2] (IL-6 stimulated), 10 to 100 nM in test [3] and not below 1000 nM in test [4] (IL-3 stimulated).

Turning to `COCCOc1ccc(-c2cnc(NC(C)=O)cc2Nc2cc(C)nc(C(C)(F)F)n2)nc1` [Example 522, N-(4′-((2-(1,1-difluoroethyl)-6-methylpyrimidin-4-yl)amino)-5-(2-methoxyethoxy)-[2,3′-bipyridin]-6′-yl)acetamide], the 50% inhibitory concentration (IC50) in test [1] (setting [6]) was not above 10 nM; in test [2] (IL-6 stimulated), not below 1000 nM; in test [3], not above 10 nM; in test [4] (IL-3 stimulated) it was not below 1000 nM.

On to `CC(=O)Nc1cc(Nc2cc(C)nc(C(C)(F)F)n2)c(-c2cn3ccnc3cn2)cn1` [Example 681, N-(4-((2-(1,1-difluoroethyl)-6-methylpyrimidin-4-yl)amino)-5-(imidazo[1,2-a]pyrazin-6-yl)pyridin-2-yl)acetamide], for which the IC50 is not above 10 nM in test [1] (setting [6]), not below 1000 nM in test [2] (IL-6 stimulated), not above 10 nM in test [3] and not below 1000 nM in test [4] (IL-3 stimulated).

Broadly, the IC50 is the concentration at which inhibition is half-maximal. Low readings indicate greater potency in that assay, high ones weaker potency in that assay.
